From patent US7449495B2, “Retinoid derivatives with antiangiogenic, antitumoral and proapoptotic activities” (Sigma-Tau Industrie Farmaceutiche Riunite S.p.A., priority 2001, dated 2008)

Columns and labels:
[1] = system: Human Promyelocytic Leukaemia HL-60 Cells; assay: Cyto-fluorometric cell cycle analysis, HL-60; type: cell-based; settings: for APOPTOSIS / G0/G1 / G2 + M / S: 3 days; for G0/G1 / G2 + M / S: percentage of cell cycle phase
Method: To evaluate the effect of the compound according to the invention, on various phases of the cell cycle, cyto-fluorometric cell cycle analyses were performed.
HL60 or NB4 cells were seeded onto plates at a density of 150.000 cells/ml in RPMI 1640 medium containing 10% FCS, the test compound (ST 1926) was added, […], in the presence or absence of sub-optimal doses of ATRA (5-10 nM for NB4 and 0.5 μM for HL60) in the dark and placed in an incubator for 3 days without changing the culture medium.
On the third day of treatment 500.000 cells were sampled, centrifuged at 180×g for 5 minutes, washed twice in calcium and magnesium free PBS. The cells (1×10^6/ml of fixative) were fixed for at least 1 hour in a fixation mixture comprised of acetone/methanol 1:4 v/v maintained at −20° C. and 50% of calcium and magnesium free PBS; then the cells were centrifuged, washed in calcium and magnesium free PBS, and again centrifuged and washed. The cellular precipitate was incubated for 30 minutes in the dark at room temperature with 200 μl of […] (100 μg/ml) and 200 μl of RNAse (150 KU/mg).
The samples with filtered through nylon filters (60-80 μm diameter) and analysed by cyto-fluorimeter FACScan (Becton Dickinson), acquiring 20000 events/sample, at an excitation wavelength of 488 nm and emission wavelength of 620 nm. The analysis of the percentages of the cell cycle phases was performed using a dedicated software package, Modfit v. 2.0 (Becton Dickinson).

[2] = system: human ovarian carcinoma A2780; assay: Antitumoral activity in human ovarian carcinoma model A2780; type: in vivo, CD1 nu/nu mice; settings: qdx5x3w
Method: The human ovarian carcinoma cells A2780, A2780/Dx and NCIH460 were maintained in RPMI-1640 containing 10% FCS, 2 mM glutamine, 50 μg/ml gentamicin, at 37° C. in a humidified atmosphere containing 5% CO2. The cells were trypsinised, collected in complete medium, centrifuged at approx. 1100 rpm for 10 minutes and the precipitate resuspended in Hank's 199 Medium; this operation was carried out twice. The cells were resuspended in Hank's 199 Medium at a density of 20×10^6/ml and 0.1 ml (equal to 2×10^6 cells/mouse) were injected s.c. into the right flank of CD1 nu/nu 6 week-old, female mice.
The ST1926 solution was prepared immediately before use and solubilised in cremophor:ethanol 1:1 and subsequently diluted 1:4 in buffered saline solution. The animal treatments were administered in a volume of 10 ml/kg. The treatment protocol for ST1926 at different doses was for 5 consecutive days (qd×5), beginning one day following tumor cell inoculation and repeated for 3 cycles. Measurements of tumor dimensions were performed using a digital calliper (Vernier Caliper) twice weekly, from the time in which the mass was measurable. The tumor mass was evaluated from the size of the two principal dimensions (length and breadth), expressed in mm, applying the formula (length×breadth^2)/2, that is, the tumor volume in mm3. For each experimental group, the percentage of tumor volume inhibition was calculated (TVI %), with respect to the control, namely (100−(T/C %). TVI was evaluated 2 days after the final administration of ST1926.
The mice were measured until the control group tumors had reached a weight of 2 g, then the mice were sacrificed by cervical dislocation.
A comparison between the TVI values obtained for each group was performed using the non parametric Mann Whitney test for non-paired data, using the Instat software from GraphPad inc.
The mice were weighed prior to each treatment, firstly, so as to be able to administer the correct quantity of substance based on the possible changes in weight observed throughout the course of administration of the drug, and also to record the maximum weight loss throughout the treatment (BWL % max).

O=C(O)/C=C/c1ccc(-c2ccc(O)c(C34CC5CC(CC(C5)C3)C4)c2)cc1 [ST1926, E-4-(3-(1-adamantyl)-4-hydroxyphenyl)cinnamic acid]
APOPTOSIS ([1]; HL-60, 0.0025 μM): 8
G0/G1 ([1]; HL-60, 0.0025 μM): 54.9
G2 + M ([1]; HL-60, 0.0025 μM): 11.7
S ([1]; HL-60, 0.0025 μM): 33.4
APOPTOSIS ([1]; HL-60, 0.005 μM): 14.0
G0/G1 ([1]; HL-60, 0.005 μM): 53.4
G2 + M ([1]; HL-60, 0.005 μM): 12.2
S ([1]; HL-60, 0.005 μM): 34.4
APOPTOSIS ([1]; HL-60, 0.01 μM): 12.5
G0/G1 ([1]; HL-60, 0.01 μM): 52.0
G2 + M ([1]; HL-60, 0.01 μM): 12.6
S ([1]; HL-60, 0.01 μM): 35.4
APOPTOSIS ([1]; HL-60, 0.05 μM): 13.0
G0/G1 ([1]; HL-60, 0.05 μM): 45.0
G2 + M ([1]; HL-60, 0.05 μM): 13.0
S ([1]; HL-60, 0.05 μM): 42.0
APOPTOSIS ([1]; HL-60, 0.1 μM): 27.5
G0/G1 ([1]; HL-60, 0.1 μM): 39.9
G2 + M ([1]; HL-60, 0.1 μM): 13.3
S ([1]; HL-60, 0.1 μM): 46.8
APOPTOSIS ([1]; HL-60, 0.5 μM): 82
APOPTOSIS ([1]; HL-60, 1 μM): 86.5
effect on HL-60 cells (in words) ([1]; HL-60, 0.5 and 1 μM, three days, cell cycle not measurable): strong pro-apoptotic effect
BWL % Max ([2]; A2780, 5 mg/kg p.o.): 3%
Lethality ([2]; A2780, 5 mg/kg p.o.): 0/8
TVI % ± SE ([2]; A2780, 5 mg/kg p.o.): *34 ± 8%
BWL % Max ([2]; A2780, 10 mg/kg p.o.): 5%
Lethality ([2]; A2780, 10 mg/kg p.o.): 0/8
TVI % ± SE ([2]; A2780, 10 mg/kg p.o.): *39 ± 5%
